Results taken from publication PMC3532212 (PLoS ONE, 2012).

Columns and labels:
[1] = Plasma concentrations during escalating i.v. infusion in anesthetized rats; format: in vivo; conditions: anesthetized rat, FTY720 i.v.
Method: The cardiovascular effects of FTY720 and BAF312 were tested in anesthetized rats (180–200 g). In brief, male Sprague Dawley rats (Charles River) were anesthetized with Inactin (110 mg/kg i.p.) and a tracheotomy performed. The femoral artery and veins were catheterized for measurement of mean arterial pressure and heart rate, collection of blood samples at 20-min intervals (0.2 mL/sample), and for compound infusion/hydration as previously described, [24]; blood samples were also withdrawn in vehicle-treated control rats. FTY720, infused as a hydrochloride salt (0.1, 0.3, 1.0 mg/kg/20-min free base equivalent solubilized in a 100% PEG-400 vehicle), or BAF312 (0.5, 1.5, 5.0 mg/kg/20-min solubilized in a 100% PEG-400 vehicle) were administered via three escalating 20-min infusions (0.011 mL/min) followed by a 1-hr post-treatment period. A blood sample was withdrawn at 20, 40, 60, and 120-minutes for analysis of plasma concentrations of the parent compound, and in the case of FTY720, also the phosphorylated metabolite, (S)-FTY720-P. Statistical significance (p<0.05) was based on a t-test comparing treatment change from baseline (baseline was defined as the period from −30 to 0 minutes) vs. vehicle controls change from baseline at each timepoint without adjustment for multiple comparisons. In a separate group of anesthetized rats in which left ventricular (LV) contractility was also recorded with a Millar pressure transducer introduced into the left ventricle, BAF312 was infused in the same dosing regimen as the studies described above (0.5, 1.5, 5.0 mg/kg/20-min solubilized in a 100% PEG-400 vehicle) and effects on LV dP/dtmax were recorded.

human S1P4 = molecular target: T1, human S1P4 (Homo sapiens, UniProt O95977); assay: B arrestin recruitment assay, Tango EDG6-bla U2OS cells; format: cell-based; conditions: B arrestin, 18 hours agonist incubation
T1 construct: host or cells: U2OS (Tango EDG6-bla)
T1 sequence (O95977 1-384): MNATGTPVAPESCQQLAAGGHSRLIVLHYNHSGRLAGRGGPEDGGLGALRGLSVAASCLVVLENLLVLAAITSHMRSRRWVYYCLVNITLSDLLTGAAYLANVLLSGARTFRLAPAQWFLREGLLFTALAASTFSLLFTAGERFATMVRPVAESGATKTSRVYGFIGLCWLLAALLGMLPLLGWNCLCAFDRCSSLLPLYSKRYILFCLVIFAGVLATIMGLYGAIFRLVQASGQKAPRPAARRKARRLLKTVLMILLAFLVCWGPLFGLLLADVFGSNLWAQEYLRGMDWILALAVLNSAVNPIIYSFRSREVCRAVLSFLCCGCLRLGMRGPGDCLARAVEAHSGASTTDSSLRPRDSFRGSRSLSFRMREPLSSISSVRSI
Method: Tango™ EDG1-bla U2OS cells (Human S1P1), Tango™ EDG3-bla U2OS cells (human S1P3), Tango™ EDG6-bla U2OS cells (human S1P4) and Tango™ EDG8-bla U2OS cells (human S1P5) cell lines were cultured and assayed according to manufacturers instructions with one modification; agonists incubated on the cells for 18 hours prior to addition of the GenBlazer substrate. Final DMSO concentration in the assay is 1%.

[2] = Plasma concentrations in repeat-dosing study, satellite rats; format: in vivo, rat; conditions: for Plasma concentration: rat, mean±SEM; for Plasma concentration at Tmax / Terminal plasma concentration at Tmax: satellite rats; for Plasma concentration at Tmax: day 1; for Terminal plasma concentration at Tmax: last day of study
Method: Mean arterial pressure was assessed in conscious, freely moving male Sprague Dawley rats (n = 6–8/group; Charles River) instrumented with telemetry transmitters (DSI-Ponemah) and housed in metabolism cages as previously described, [26]. Tested compounds were solubilized in a 0.5% Methylcellulose/0.015% Tween 80 vehicle that was also dosed alone (p.o./QD, 5 mL/kg) as a control in the study. FTY720 was administered p.o. at 0.3, 1.0, 3.0, 10.0 mg/kg p.o. as a single dose or p.o./QD at 0.5, 1.5, and 5.0 mg/kg in a chronic study. BAF312 was administered p.o/QD at 0.3, 3.0, and 30 mg/kg as a single dose and in a chronic study. Mean arterial pressure and heart rate are shown as 1-hr and/or 24-hr mean values±SEM as described in the results. Blood samples in satellite rats were withdrawn at various timepoints as described in the results for analysis of plasma concentrations of the parent compound and, in the case of FTY720, also the phosphorylated metabolite, (S)-FTY720-P. Statistical analysis for the single-dose acute studies was based on one-way ANOVA to compare the treatment groups vs. vehicle for each time period after dosing (0–24 hrs, 24–48 hrs, and 48–72 hrs); statistical significance (p<0.05) was detected by Dunnett’s post-hoc test to compare treatment with vehicle controls. The statistical analysis in the chronic studies were based on one-way ANOVA with repeated measures to compare the treatment arms; statistical significance (p<0.05) was detected by Dunnett’s post-hoc test to compare treatment with vehicle controls.

- Plasma concentration ([1]; end of 0.1 mg/kg/20 min infusion, listed as phosphorylated FTY720, 0.1 mg/kg): 285 ± 87 nM
- Plasma concentration ([1]; end of 0.3 mg/kg/20 min infusion, listed as phosphorylated FTY720, 0.3 mg/kg): 683 ± 214 nM
- Plasma concentration ([1]; end of 1.0 mg/kg/20 min infusion, listed as phosphorylated FTY720, 1 mg/kg): 908 ± 264 nM
- Plasma concentration ([1]; end of 60-min post-treatment period, listed as phosphorylated FTY720): 211 ± 17 nM
- EC50 (human S1P4): 26 nM
- Plasma concentration ([2]; FTY720 0.5 mg/kg/d p.o., Day 1, 4 hr post-dose): 46 ± 5 nM
- Plasma concentration ([2]; FTY720 0.5 mg/kg/d p.o., Day 1, 8 hr post-dose): 103 ± 24 nM
- Plasma concentration ([2]; FTY720 0.5 mg/kg/d p.o., Day 1, 24 hr post-dose): 65 ± 23 nM
- Plasma concentration ([2]; FTY720 0.5 mg/kg/d p.o., Terminal (last day), 0-hr): 141 ± 31 nM
- Plasma concentration ([2]; FTY720 0.5 mg/kg/d p.o., Terminal (last day), 4 hr post-dose): 229 ± 40 nM
- Plasma concentration ([2]; FTY720 0.5 mg/kg/d p.o., Terminal (last day), 8 hr post-dose): 478 ± 303 nM
- Plasma concentration ([2]; FTY720 0.5 mg/kg/d p.o., Terminal (last day), 24 hr post-dose): 546 ± 359 nM
- Plasma concentration ([2]; FTY720 1.5 mg/kg/d p.o., Day 1, 4 hr post-dose): 231 ± 1 nM
- Plasma concentration ([2]; FTY720 1.5 mg/kg/d p.o., Day 1, 8 hr post-dose): 275 ± 55 nM
- Plasma concentration ([2]; FTY720 1.5 mg/kg/d p.o., Day 1, 24 hr post-dose): 264 ± 79 nM
- Plasma concentration ([2]; FTY720 1.5 mg/kg/d p.o., Terminal (last day), 0-hr): 690 ± 136 nM
- Plasma concentration ([2]; FTY720 1.5 mg/kg/d p.o., Terminal (last day), 4 hr post-dose): 800 ± 77 nM
- Plasma concentration ([2]; FTY720 1.5 mg/kg/d p.o., Terminal (last day), 8 hr post-dose): 647 ± 121 nM
- Plasma concentration ([2]; FTY720 1.5 mg/kg/d p.o., Terminal (last day), 24 hr post-dose): 560 ± 70 nM
- Plasma concentration ([2]; FTY720 5.0 mg/kg/d p.o., Day 1, 4 hr post-dose): 506 ± 74 nM
- Plasma concentration ([2]; FTY720 5.0 mg/kg/d p.o., Day 1, 8 hr post-dose): 696 ± 279 nM
- Plasma concentration ([2]; FTY720 5.0 mg/kg/d p.o., Day 1, 24 hr post-dose): 773 ± 55 nM
- Plasma concentration ([2]; FTY720 5.0 mg/kg/d p.o., Terminal (last day), 0-hr): 2344 ± 356 nM
- Plasma concentration ([2]; FTY720 5.0 mg/kg/d p.o., Terminal (last day), 4 hr post-dose): 2913 ± 238 nM
- Plasma concentration ([2]; FTY720 5.0 mg/kg/d p.o., Terminal (last day), 8 hr post-dose): 1508 ± 316 nM
- Plasma concentration ([2]; FTY720 5.0 mg/kg/d p.o., Terminal (last day), 24 hr post-dose): 1561 ± 230 nM
- Plasma concentration at Tmax ([2]; FTY720 0.5 mg/kg/d p.o.): 103 ± 24 nM
- Terminal plasma concentration at Tmax ([2]; FTY720 0.5 mg/kg/d p.o.): 546 ± 358 nM
- Plasma concentration at Tmax ([2]; FTY720 1.5 mg/kg/d p.o.): 275 ± 55 nM
- Terminal plasma concentration at Tmax ([2]; FTY720 1.5 mg/kg/d p.o.): 800 ± 77 nM
- Plasma concentration at Tmax ([2]; FTY720 5.0 mg/kg/d p.o.): 773 ± 55 nM
- Terminal plasma concentration at Tmax ([2]; FTY720 5.0 mg/kg/d p.o.): 2913 ± 92 nM
Compound: CCCCCCCCc1ccc(CC[C@](N)(CO)COP(=O)(O)O)cc1 [FTY720-P]
